# Source: article PMC5147891 (PLoS ONE, 2016)
# Marks after values point to notes of the source that are not given here.
# Assays:
# hCB1 receptors [1] = target: T1, hCB1 receptors (Homo sapiens, UniProt P21554); assay: [35S]GTPγS binding (G-protein activity), CHO-hCB1 membranes; type: biochemical; conditions: 10 μM
# Experimental: CHO-hCB1, CHO-hCB2 and CHO-hMOR cells were homogenized individually with 10 complete strokes utilizing a 7ml Dounce glass homogenizer in an ice-cold buffer containing 50 mM HEPES pH 7.4, 3 mM MgCl2, and 1 mM EDTA as described previously. The homogenized samples were then centrifuged at 40,000 × g for 10 min at 4°C. Supernatants were discarded; the pellets re-suspended in the buffer, homogenized again, and centrifuged similarly twice more. After the final centrifugation step, supernatants were discarded and pellets were re-suspended in ice-cold 50 mM HEPES, pH 7.4 to achieve an approximate protein concentration of 10 mg/ml. Membrane homogenates were divided into aliquots and stored at −80°C for future use. A small aliquot of each membrane preparation was removed prior to freezing and the protein concentration was determined using BCA Protein Assay (Thermo Fisher Scientific, Waltham, MA).
# The GTPγS binding assay to measure G-protein activation was performed as previously described. Briefly, in a total volume of 1 ml, 25 μg of CHO-hCB2, 50 μg of CHO-hCB1-Rx or 50 μg of CHO-hMOR membranes homogenates were added to each reaction mixture containing 0.1 nM [^35S]GTPγS, 20 mM HEPES, 10 mM MgCl2, 100 mM NaCl, 10 μM GDP, 0.1% bovine serum albumin and the indicated concentrations of ligand to be examined. After mixing, reaction mixtures were incubated at 30°C for 30 min. […] Nonspecific binding was defined by the amount of radioactivity remaining in the presence of 10 μM non-radiolabeled GTPγS. Reactions were terminated by rapid vacuum filtration through glass fiber filters followed by four washes with ice cold 50 mM HEPES (pH 7.4) containing 0.1% bovine serum albumin. Four ml of scintiverse scintillation fluid (Fisher Scientific, Waltham, MA) was added to the filters and the amount of radioactivity was quantified 24 hr later utilizing liquid scintillation spectrophotometry.
# Data presented are expressed as mean ± standard error of the mean (S.E.M.) for a minimum of three experiments, each performed in triplicate. GraphPad Prism version 6.0f (GraphPad Software Inc.) was used for all curve-fitting and statistical analyses. Non-linear regression for one-site competition was used to determine the IC50 for competition receptor binding. IC50 values were subsequently converted to Ki values (a measure of receptor affinity) by the Cheng-Prusoff equation [31]. Non-linear regression was also used to analyze concentration-effect curves to determine the EC50 or IC50 (measures of potency) and Emax or Imax (measures of efficacy) for GTPγS binding and adenylyl cyclase experiments, respectively. […] To compare three or more groups, statistical significance of the data was determined by a one-way ANOVA, followed by post hoc comparisons using a Tukey's or Dunnett's test. […]
# hCB1 receptors [2] = target: T1, hCB1 receptors; assay: Forskolin-stimulated intracellular [3H]cAMP in intact CHO-hCB1 cells; type: cell-based; conditions: concentration-effect curves
# Experimental: CHO-hCB1, CHO-hCB2, or CHO-hMOR cells were plated separately in normal culture media into 24-well plates at a density of 6 × 10^6 cells/plate and incubated overnight at 37°C in 5% CO2. As previously described, the following day culture media was removed from each well and replaced with 500 μl pre-incubation mixture containing either HAM’s F-12 K (CHO-hCB1) or DMEM (CHO-hCB2 and CHO-hMOR) with 0.9% NaCl, 500 μM 3-isobutyl-1-methylxathine (IBMX) and 2 μCi/well [^3H]adenine. Cells were incubated for 3–5 hr at 37°C. The pre-incubation mix was removed and indicated concentrations of drugs were added to the individual wells for 15 min at 37°C in a Krebs-Ringer-HEPES solution (10 mM HEPES, 110mM NaCl, 25mM Glucose, 55mM Sucrose, 5mM KCl, 1mM MgCl2, 1.8 mM CaCl2, pH 7.4) containing IBMX, and 10 μM forskolin. […] Radioactivity contained in 4 ml of the final column eluate was counted by a Packard-Tri-carb 2100/TR liquid scintillation counter after adding 10 ml of liquid scintillation cocktail.
# Data presented are expressed as mean ± standard error of the mean (S.E.M.) for a minimum of three experiments, each performed in triplicate. […] To compare three or more groups, statistical significance of the data was determined by a one-way ANOVA, followed by post hoc comparisons using a Tukey's or Dunnett's test. […]
# hCB1 receptors [3] = target: T1, hCB1 receptors; assay: Antagonism of CP-55,940 inhibition of AC activity in intact CHO-hCB1 cells; type: cell-based; conditions: CHO-hCB1 cells
# Experimental: After overnight seeding into 24-well plates and pre-incubation of cells with [^3H]adenine for 3–5 hr at 37°C as described above, media was removed and the indicated concentration of the SERM to be tested was added to all wells of the 24-well plate. […] Reactions were terminated and [^3H]cAMP isolated as described above.
# Data presented are expressed as mean ± standard error of the mean (S.E.M.) for a minimum of three experiments, each performed in triplicate. GraphPad Prism version 6.0f (GraphPad Software Inc.) was used for all curve-fitting and statistical analyses. Non-linear regression for one-site competition was used to determine the IC50 for competition receptor binding. IC50 values were subsequently converted to Ki values (a measure of receptor affinity) by the Cheng-Prusoff equation [31]. Non-linear regression was also used to analyze concentration-effect curves to determine the EC50 or IC50 (measures of potency) and Emax or Imax (measures of efficacy) for GTPγS binding and adenylyl cyclase experiments, respectively. All dissociation constants and measurements of potency were converted to pKi, pKB, pEC50, or pIC50 values by taking the negative log of each value so that parametric tests could be used for statistical comparisons. To compare three or more groups, statistical significance of the data was determined by a one-way ANOVA, followed by post hoc comparisons using a Tukey's or Dunnett's test. To compare two groups, the non-paired Student's t-test was used.
# T1 sequence (P21554 whole entry): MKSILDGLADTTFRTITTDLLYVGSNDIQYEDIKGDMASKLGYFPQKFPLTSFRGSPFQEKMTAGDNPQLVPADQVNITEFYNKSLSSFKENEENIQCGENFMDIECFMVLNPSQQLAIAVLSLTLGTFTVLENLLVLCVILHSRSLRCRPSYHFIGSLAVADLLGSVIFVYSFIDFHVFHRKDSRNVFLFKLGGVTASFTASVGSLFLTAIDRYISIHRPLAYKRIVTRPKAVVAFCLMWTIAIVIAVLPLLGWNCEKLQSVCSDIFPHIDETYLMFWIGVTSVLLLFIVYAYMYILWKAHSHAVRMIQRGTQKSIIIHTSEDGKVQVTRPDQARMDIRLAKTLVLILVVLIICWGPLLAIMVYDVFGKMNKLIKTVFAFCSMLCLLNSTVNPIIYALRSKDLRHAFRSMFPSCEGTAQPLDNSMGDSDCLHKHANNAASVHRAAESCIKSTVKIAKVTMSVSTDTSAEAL
smiles,measurement,setting,value
Cc1c(C(=O)NN2CCOCC2)nn(-c2ccc(Cl)cc2Cl)c1-c1ccc(I)cc1 [AM-281],Effect on basal [35S]GTPγS binding,hCB1 receptors [1],decreased
same,"IMAX, inhibition of basal [35S]GTPγS binding",hCB1 receptors [1],33. ± 3.2%
same,Effect on basal cAMP levels,hCB1 receptors [2],did not alter cAMP levels
same,"Type of antagonism of CP-55,940",hCB1 receptors [3],surmountable antagonism
same,pKb,"hCB1 receptors [3]; against CP-55,940, AM-281 1 μM, Z-4OHT 10 μM, Z-End 30 μM",6.81 ± 0.061
same,Kb,"hCB1 receptors [3]; against CP-55,940, AM-281 1 μM, Z-4OHT 10 μM, Z-End 30 μM, read-out: Kb (antagonist dissociation constant)",155 nM
same,"Shift (decrease) in potency (IC50) of CP-55,940","hCB1 receptors [3]; AM-281 1 μM, Z-Tam 30 μM",greater than 8 fold
same,"IMAX of CP-55,940, intracellular [3H]cAMP","hCB1 receptors [3]; CP-55,940 alone or after pre-incubation with AM-281 1 μM, Z-Tam 30 μM, Z-4OHT 10 μM, Z-End 30 μM",35.7 ± 0.9^a %
